Laboratory results reported in publication PMC5884906, “Single Administration of HBK-15—a Triple 5-HT1A, 5-HT7, and 5-HT3 Receptor Antagonist—Reverses Depressive-Like Behaviors in Mouse Model of Depression Induced by Corticosterone” (Molecular Neurobiology, 2017).
Several values for one entry are separate records, joined by “and”; a condition that tells them apart may be missing. Identical values can stand only once.

What was measured:
Assay type in all cases: in vivo
[1] = system: corticosterone-treated mice; assay: forced swim test, chronic administration, corticosterone model; details: for effect on corticosterone-induced increase in immobility: 21 days
Procedure: The dose and route of administration of corticosterone was based on studies performed by Zhao and colleagues. Thirty minutes before, corticosterone injection mice were given (i.p.) saline, HBK-14 (1.25 or 2.5 mg/kg), HBK-15 (0.625 or 1.25 mg/kg), or fluoxetine (10 mg/kg) (Fig. 1b). Control mice received (i.p.) saline and 30 min later saline containing 0.1% dimethyl sulfoxide (DMSO) and 0.1% Tween-80 (s.c.). The experimental groups consisted of eight randomly selected animals. After the end of the procedure, animals were tested in the sucrose preference test, forced swim test, elevated plus maze test, and spontaneous locomotor activity test. Following behavioral testing, rodents were scarified and their hippocampi collected for biochemical analysis. Forced swim test was performed according to the method described by Porsolt and colleagues and previously described. Mice were placed individually for 6 min in glass cylinders (height 25 cm, diameter 10 cm) containing […] (23–25 °C). The total time of immobility was recorded during the final 4 min of the test. The experiments were recorded and scored using aLab.io software by a trained observer blind to the treatments.

[2] = system: corticosterone-treated mice; assay: elevated plus maze, chronic administration, corticosterone model
Procedure: The doses and route of administration of the studied compounds were based on our previous experiments. […] Mice were injected with corticosterone (s.c., 20 mg/kg) at random times during the light phase for 21 consecutive days (Fig. 1b). The dose and route of administration of corticosterone was based on studies performed by Zhao and colleagues. Thirty minutes before, corticosterone injection mice were given (i.p.) saline, HBK-14 (1.25 or 2.5 mg/kg), HBK-15 (0.625 or 1.25 mg/kg), or fluoxetine (10 mg/kg) (Fig. 1b). Control mice received (i.p.) saline and 30 min later saline containing 0.1% dimethyl sulfoxide (DMSO) and 0.1% Tween-80 (s.c.). The experimental groups consisted of eight randomly selected animals. After the end of the procedure, animals were tested in the sucrose preference test, forced swim test, elevated plus maze test, and spontaneous locomotor activity test. Following behavioral testing, rodents were scarified and their hippocampi collected for biochemical analysis. The elevated plus maze was performed according to the method previously described. […] Each mouse was individually placed at the central field of the apparatus with the head turned toward one of the closed arms. […] The device was disinfected with 70% ethanol after each mouse. The number of entries to open and closed arms and time spent in the open and closed arms were measured. The experiments were recorded and scored using aLab.io software by a trained observer blind to the treatments.

[3] = system: corticosterone-treated mice; assay: spontaneous locomotor activity, chronic administration; details: 6 min session
Procedure: The doses and route of administration of the studied compounds were based on our previous experiments. […] Mice were injected with corticosterone (s.c., 20 mg/kg) at random times during the light phase for 21 consecutive days (Fig. 1b). The dose and route of administration of corticosterone was based on studies performed by Zhao and colleagues. Thirty minutes before, corticosterone injection mice were given (i.p.) saline, HBK-14 (1.25 or 2.5 mg/kg), HBK-15 (0.625 or 1.25 mg/kg), or fluoxetine (10 mg/kg) (Fig. 1b). Control mice received (i.p.) saline and 30 min later saline containing 0.1% dimethyl sulfoxide (DMSO) and 0.1% Tween-80 (s.c.). The experimental groups consisted of eight randomly selected animals. After the end of the procedure, animals were tested in the sucrose preference test, forced swim test, elevated plus maze test, and spontaneous locomotor activity test. Following behavioral testing, rodents were scarified and their hippocampi collected for biochemical analysis. The locomotor activity was performed as previously described. Locomotor activity was recorded individually for each mouse using activity cages made of clear Perspex (40 cm × 40 cm × 31 cm, Activity Cage 7441, Ugo Basile, Italy). The cages were supplied with I.R. horizontal beam emitters connected to a counter for the recording of light-beam interruptions. Each mouse was placed in a cage for a 30-min habituation period. […] The cages were disinfected with 70% ethanol after each mouse.

[4] = system: corticosterone-treated mice; assay: spontaneous locomotor activity, single administration; details: 4 min
Procedure: Mice were injected with corticosterone (s.c., 20 mg/kg) at random times during the light phase for consecutive 21 days (Fig. 1c). The dose and route of administration of corticosterone were based on studies performed by Zhao and colleagues. […] Control mice received (i.p.) saline. The experimental groups consisted of eight randomly selected animals. We chose the dose of HBK-15 that was active in the chronic experiments (i.e., 1.25 mg/kg). The dose of ketamine was based on the studies performed by Pazini and colleagues. Animals were tested in the forced swim test and spontaneous locomotor activity test. After behavioral testing, mice were scarified and their hippocampi collected for biochemical analysis.
The locomotor activity was performed as previously described. Locomotor activity was recorded individually for each mouse using activity cages made of clear Perspex (40 cm × 40 cm × 31 cm, Activity Cage 7441, Ugo Basile, Italy). The cages were supplied with I.R. horizontal beam emitters connected to a counter for the recording of light-beam interruptions. Each mouse was placed in a cage for a 30-min habituation period. After that time, the number of crossings of photobeams was measured for 6 min (chronic studies) or for 4 min (acute experiments; i.e., the time equal to the observation period in the forced swim test). The cages were disinfected with 70% ethanol after each mouse.

[5] = corticosterone 20 mg/kg s.c. 21 days + saline
[6] = 1.25 mg/kg i.p. 21 days + corticosterone

Q: `C[C@]12C[C@H](O)[C@H]3[C@@H](CCC4=CC(=O)CC[C@@]43C)[C@@H]1CC[C@@H]2C(=O)CO` [corticosterone] was tested. Which “increase in immobility vs control” value [1, 5] did it give?
A: 14% and 21%

Q: And the “decrease in open arm entries vs control” value [2, 5]?
A: 56% and 48%

Q: And the “decrease in time spent in the open arms vs control” value [2, 5]?
A: 48%

Q: And the “Number of crossings ± S.E.M” value [3, 5]?
A: 343.4 ± 27.3 and 394.5 ± 67.1

Q: What about the “Number of crossings ± S.E.M” value [4, 5] of the same molecule?
A: 230.7 ± 15.8

Q: `COc1ccccc1N1CCN(CCOCCOc2c(C)cccc2Cl)CC1.Cl` [HBK-15, 1-[(2-chloro-6-methylphenoxy)ethoxyethyl]-4-(2-methoxyphenyl)piperazine hydrochloride] was tested. Which “effect on corticosterone-induced increase in immobility” value ([1]; 1.25 mg/kg i.p.) did it give?
A: prevented an increase in immobility

Q: And the “effect on corticosterone-induced decrease in number of open arm entries” value ([2]; 2.5 mg/kg i.p., 21 days)?
A: prevented the decreases

Q: What about the “effect on corticosterone-induced decrease in time spent in the open arms” value ([2]; 2.5 mg/kg i.p., 21 days) of the same molecule?
A: prevented the decreases in the time spent in the open arms

Q: And the “Number of crossings ± S.E.M” value ([3]; 0.625 mg/kg i.p. 21 days + corticosterone)?
A: 466.1 ± 84.8

Q: What about the “Number of crossings ± S.E.M” value [3, 6] of the same molecule?
A: 478.9 ± 78.8

Q: What about the “Number of crossings ± S.E.M” value ([4]; single 1.25 mg/kg i.p. in corticosterone-treated mice) of the same molecule?
A: 245.3 ± 22.5

Q: With `COc1ccccc1N1CCN(CCOCCOc2c(C)cccc2C)CC1.Cl` [HBK-14, 1-[(2,6-Dimethylphenoxy)ethoxyethyl]-4-(2-methoxyphenyl)piperazine hydrochloride] as the molecule, how does the “effect on corticosterone-induced increase in immobility” value ([1]; 1.25 or 2.5 mg/kg i.p.) read?
A: inactive

Q: What about the “effect on corticosterone-induced decrease in number of open arm entries” value ([2]; 2.5 mg/kg i.p., 21 days) of the same molecule?
A: prevented the decreases

Q: And the “effect on corticosterone-induced decrease in time spent in the open arms” value ([2]; 2.5 mg/kg i.p., 21 days)?
A: prevented the decreases in the time spent in the open arms

Q: What about the “number of open arms entries compared with fluoxetine” value ([2]; 2.5 mg/kg i.p., 21 days, vs fluoxetine 10 mg/kg) of the same molecule?
A: significantly increased

Q: What about the “Number of crossings ± S.E.M” value [3, 6] of the same molecule?
A: 406.3 ± 64.2

Q: What about the “Number of crossings ± S.E.M” value ([3]; 2.5 mg/kg i.p. 21 days + corticosterone) of the same molecule?
A: 400.8 ± 55.8

Q: How did the “effect on corticosterone-induced increase in immobility” value ([1]; 10 mg/kg i.p.) turn out when `CNCCC(Oc1ccc(C(F)(F)F)cc1)c1ccccc1` (stereo not shown) [fluoxetine, reference compound] was run?
A: prevented an increase in immobility

Q: And the “effect on corticosterone-induced decrease in number of open arm entries” value ([2]; 10 mg/kg i.p., 21 days)?
A: prevented the decreases

Q: And the “effect on corticosterone-induced decrease in time spent in the open arms” value ([2]; 10 mg/kg i.p., 21 days)?
A: prevented the decreases in the time spent in the open arms

Q: And the “Number of crossings ± S.E.M” value ([3]; 10 mg/kg i.p. 21 days + corticosterone)?
A: 510.3 ± 54.0 and 423.3 ± 47.3

Q: And the “Number of crossings ± S.E.M” value ([4]; single i.p. in corticosterone-treated mice)?
A: 231.9 ± 21.9
